This passage reports inhibition and EC50 results from patent publication US20240150330A1, “CHROMANS AND BENZOFURANS AS 5-HT1A AND TAAR1 AGONISTS” (Sunovion Pharmaceuticals Inc., priority 2021, published 2024).

One test concerns the target T1, human 5-HT1A receptor (Homo sapiens, UniProt P08908).
T1 construct: expressed in transfected cells; host or cells: CHO-K1
T1 sequence (P08908 1-422): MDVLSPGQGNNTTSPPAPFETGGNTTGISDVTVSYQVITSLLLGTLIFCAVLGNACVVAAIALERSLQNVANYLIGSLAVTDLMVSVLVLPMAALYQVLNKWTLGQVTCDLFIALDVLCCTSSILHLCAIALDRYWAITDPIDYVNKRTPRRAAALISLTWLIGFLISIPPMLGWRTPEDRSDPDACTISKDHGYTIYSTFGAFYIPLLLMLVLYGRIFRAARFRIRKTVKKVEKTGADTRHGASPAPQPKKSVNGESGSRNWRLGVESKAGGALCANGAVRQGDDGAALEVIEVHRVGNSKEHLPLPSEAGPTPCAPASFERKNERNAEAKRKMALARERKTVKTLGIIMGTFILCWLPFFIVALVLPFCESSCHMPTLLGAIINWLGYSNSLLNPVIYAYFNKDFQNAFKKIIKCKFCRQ
Kind of test: 5-HT1A Radioligand Binding Assay. Conditions: 1 μM test compound; competition with 0.9 nM [3H]-8-OH-DPAT; membranes of 5-HT1A expressing CHO-K1 cells. How it is done:
Cells expressing the human 5-HT1A receptor were grown to mid-log phase in complete culture medium and then scraped from the culture vessels in ice-cold Ca^2+- and Mg^2+-free Phosphate-buffered saline. The cells were then centrifuged for 10 minutes at 5,000×g and 4° C. and the pellets resuspended in buffer A (15 mM Tris-HCl pH 7.5; 2 mM MgCl2; 0.3 mM EDTA; 1 mM EGTA) and homogenized in a glass-glass homogenizer. The crude membrane fraction was collected by two consecutive centrifugation steps at 35,000×g and 4° C. for 30 minutes separated by a wash step with buffer A. The final membrane pellet was suspended in buffer B (75 mM Tris-HCl pH 7.5; 12.5 mM MgCl2; 0.3 mM EDTA; 1 mM EGTA; 250 mM sucrose) and flash-frozen in liquid nitrogen. Protein content was determined by the BCA method (Interchim, UP40840A).
Radioligand competition binding was performed in duplicate in the wells of a 96 well plate (Master Block, Greiner, 786201) containing binding buffer (50 mM Tris, 5 mM CaCl2, 0.1% ascorbic acid, 10 μg/ml saponin, pH7.4), membrane extracts prepared from the 5-HT1A expressing CHO-K1 cell line (7 μg protein/well), reference tracer (0.9 nM [^3H]-8-OH-DPAT) and test compound in a final volume of 0.1 ml. Nonspecific binding was determined by co-incubation with 200-fold excess of reference competitor (5-HT). The samples were incubated for 1 hour at 25° C., and then filtered over GF/B Unifilter plates (Perkin Elmer 6005177) presoaked in 0.5% PEI, using a Filtermate Harvester (Perkin Elmer, C96162). Filters were washed six times with 0.5 ml ice-cold buffer (50 mM Tris pH 7.4) and 50 μl of Microscint 20 (Packard) were added to each well. The plates were incubated 15 minutes on an orbital shaker and then counted with a TopCount NXT (Packard, C384V01) for 1 minute/well.
Compounds were tested at 1 and 10 μM concentrations, in duplicate: […]

Another test deals with T2, TAAR1 receptor (UniProt Q96RJ0).
T2 sequence (Q96RJ0 1-339): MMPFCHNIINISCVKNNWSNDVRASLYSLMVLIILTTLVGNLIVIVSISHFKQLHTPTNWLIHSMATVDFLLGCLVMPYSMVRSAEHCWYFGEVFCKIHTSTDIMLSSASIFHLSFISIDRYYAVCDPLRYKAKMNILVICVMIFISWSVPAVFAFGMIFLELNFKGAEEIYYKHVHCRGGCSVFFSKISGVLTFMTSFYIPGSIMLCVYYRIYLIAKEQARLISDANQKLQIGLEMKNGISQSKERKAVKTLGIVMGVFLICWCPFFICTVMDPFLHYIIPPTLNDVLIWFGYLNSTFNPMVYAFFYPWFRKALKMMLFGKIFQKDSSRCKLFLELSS
The test can be described thus: TAAR1 Agonist cAMP Assay. The test is classed as cell-based, human or mouse. Conditions: CHO-K1 cells expressing TAAR1; cAMP HTRF; 30 minutes at room temperature. The procedure: CHO-K1 cells expressing the human TAAR1 receptor (Accession number NP_612200.1) or mouse TAAR1 receptor (Accession number NP_444435.1) were grown in media (Advanced DMEM supplemented with 1% dialyzed fetal bovine serum) without antibiotics. The cells were detached by gentle flushing with phosphate buffered saline containing 5 mM EDTA, recovered by centrifugation and resuspended in assay buffer (Krebs-Ringers Henseleit buffer: 5 mM KCl, 1.25 mM MgSO4, 124 mM NaCl, 25 mM HEPES, 13.3 mM Glucose, 1.25 mM KH2PO4, 1.45 mM CaCl2, 0.5 g/L BSA, supplemented with 1 mM isobutylmethylxanthine). Testing was performed in 384-well plates. 5 μl of cells (3000 cells) were mixed with 5 μl of the test compound diluted in assay buffer and then incubated for 30 minutes at room temperature. cAMP levels were determined using the Cisbio cAMP Gs dynamic HTRF kit (Cisbio, Bedford, MA). The results of the testing are shown in Table 3, with EC50 ranges designated as follows: • A=0.1 μM to 1 μM • B=0.01 μM to <0.1 μM • C=0.001 μM to <0.01 μM • D=0.0001 μM to <0.001 μM

Where only a bound is given, the exact number is not on record here.

With `NC[C@@H]1CCOc2c(-c3ccncc3)cccc21` [Compound 1, (R)-(8-(pyridin-4-yl)chroman-4-yl)methanamine], on human 5-HT1A receptor, the inhibition at 1 µM is above 50%. As to `NC[C@H]1CCOc2c(-c3ccncc3)cccc21` [Compound 2, (S)-(8-(pyridin-4-yl)chroman-4-yl)methanamine], the inhibition at 1 µM at human 5-HT1A receptor was above 90%. `CNC[C@@H]1CCOc2c(-c3ccncc3)cccc21` [Compound 3, (R)—N-methyl-1-(8-(pyridin-4-yl)chroman-4-yl)methanamine] registered an inhibition at 1 µM at human 5-HT1A receptor above 50%. The compound also returned a half-maximal effective concentration (EC50) at TAAR1 receptor of 10 to 100 nM.

Regarding `CNC[C@H]1CCOc2c(-c3ccncc3)cccc21` [Compound 4, (S)—N-methyl-1-(8-(pyridin-4-yl)chroman-4-yl)methanamine], the inhibition at 1 µM on human 5-HT1A receptor was above 90%. On TAAR1 receptor, the half-maximal effective concentration (EC50) was in the range of 100 to 1000 nM.

By inhibition is commonly meant the percentage by which the read-out fell short of the control. A higher inhibition goes with a strong effect. The term EC50 denotes the concentration needed to bring the measured effect to its halfway point.
